Laboratory results: US20130071848A1 (priority 2011, published 2013)

Experiments:
[1] = system: BL21(DE3)ung-151 E. coli cells; assay: Uracil content of E. coli genomial DNA by real-time PCR with Pfu WT-pol and Pfu V93Q-pol; format: cell-based, Escherichia coli; conditions: early log phase (OD600=0.5), mean ± SEM, untreated 537±37
Method: Escherichia coli genomial DNA. XL1-blue, BL21(DE3)ung-151 and CJ236 E. coli strains were propagated in LB media at 37° C. and were harvested at the early log phase (OD600=0.5) or at saturated phase (overnight culture). BL21(DE3)ung-151 cells grown in the presence of 30.7 or 61.3 μM 5-fluoro-2′-deoxyuridine (5FdUR) (Sigma-Aldrich) were harvested at the early log phase. Genomial DNA was purified by MasterPure DNA Purification Kit (Epicentre) following the instructions of the manufacturer. The DNA was digested by NdeI restriction enzyme (New England Biolabs) and was separated on 1% agarose gel. […]
(§1) Synthetic and physiological samples purified from agarose gels were applied in series of either 2-fold or 10-fold dilution steps. […] Melting point of the products was measured after a final denaturation at 95° C. for 1 min by heating from 55° C. to 95° C. […] Non-template control was measured in all cases. […] Cq values were determined after the manual setting of threshold level in the early exponential phase of the PCR amplification. […] Efficiency was calculated from the following equation: E=10^(−1/M)−1, where M is the slope of the linear curve and E is the efficiency. […] At each measured CqWt value the shift between the linear curves of the reference and the putatively uracil containing samples was determined. […]

[2] = system: ung−/− mouse embryonic fibroblast (MEF) cells; assay: Uracil content of MEF genomial DNA by real-time PCR with Pfu WT-pol and Pfu V93Q-pol; format: cell-based; conditions: 100 μM 5FdUR, 4 days, mean ± SEM
Method: (§2) Mouse Embryonic Fibroblast (MEF) genomial DNA. Wild type and ung^(−/−) MEF cells (34) were a generous gift from Dr. Hilde Nilsen, University of Oslo. MEF cells were cultured in DMEM+F12 HAM Mix (Sigma) supplemented with 10% Fetal Bovine Serum (Gibco), 1% Penicillin+Streptomycin (Gibco), 0.5 mM Sodium Pyruvate (Gibco), 1% 100× Non-Essential Amino Acids (Gibco). To obtain confluent cells 10^6 cells/T-75 flask were seeded. […] Genomial DNA was purified by MasterPure DNA Purification Kit (Epicentre). DNA was digested by EcoRI restriction enzyme (New England Biolabs) and separated on 1% agarose gel. […]
as §1

[3] = system: wild-type mouse embryonic fibroblast (MEF) cells; assay: as above; format: cell-based; conditions: 100 μM 5FdUR, 4 days, mean ± SEM, practically undetectable
Method: as §2, §1

ung−/− MEF cells = assay: Viability assay of MEF cells (AlamarBlue); format: cell-based, mouse; conditions: 0-1000 nM 5FdUR, 4 days, AlamarBlue fluorescence normalized to untreated
Method: (§3) Wild type and ung^(−/−) MEF cells were seeded onto 96-well plates in DMEM+F12 HAM Mix (Sigma) supplemented with 10% Fetal Bovine Serum (Gibco), 1% Penicillin+Streptomycin (Gibco), 0.5 mM Sodium Pyruvate (Gibco), 1% 100× Non-Essential Amino Acids (Gibco). 2000 cells were seeded in a well containing 100 μl medium. After 4 days 10 μl AlamarBlue (Biosource) was added, incubated for 3 hours at 37° C. and fluorescence was measured by Victor2 140 Multilabel counter at 485 nm excitation and 530 nm emission. Samples in triplicates were treated with different concentration of 5FdUR (0, 1, 10, 20, 50, 100, 250, 500, 1000 nM) and viability was assessed. Measurements were repeated three-times. Fluorescence intensity values measured from the wells was normalized to the intensity detected in samples grown in lack of 5FdUR.

wild type MEF cells = assay: Viability assay of MEF cells (AlamarBlue); format: cell-based, mouse; conditions: 0-1000 nM 5FdUR, 4 days, AlamarBlue fluorescence normalized to untreated
Method: as §3

SMILES: O=c1[nH]c(=O)n([C@H]2C[C@H](O)[C@@H](CO)O2)cc1F [5FdUR, 5-fluoro-2′-deoxyuridine]
- uracil content of genomial DNA ([1]; 30.7 μM 5FdUR): 653±55 deoxyuridine/million dNMP
- uracil content of genomial DNA ([1]; 61.3 μM 5FdUR): 770±54 deoxyuridine/million dNMP
- uracil content of genomial DNA [2]: 341±87 deoxyuridine/million dNMP
- uracil content of genomial DNA [3]: 40±38 deoxyuridine/million dNMP
- viability (ung−/− MEF cells): significant decrease in viability
- viability (wild type MEF cells): significant decrease in viability
